The values that follow come from US20190060249A1 (priority 2017, published 2019).

Assay [1] concerns mouse WT EpCAM+/CD24+-sorted cells. Nature of the assay: Salisphere formation assay, mouse. In kind it is cell-based. The note with it: 25 μM Alda-341 over 7 days. The protocol: Salisphere formation assay: Cells isolated from mouse submandibular glands (SMG) were FACS sorted using cell surface markers EpCAM and CD24 as previously described and seeded on matrigel (BD Biosciences, BD356235). Cells were grown in DMEM/F12+GlutaMax (Gibco, 10565-018) media containing 10% FBS, 1× anti-anti, 1% N2 supplement (Gibco), 20 ng/mL […] (Sigma-Aldrich), 20 ng/mL fibroblast growth factor-2 (Sigma-Aldrich), 10 μg/mL insulin (Sigma-Aldrich), 1 μM dexamethasone (Sigma-Aldrich), 10 μM […] (Stem Cell Technologies). Spheres were passaged every 7 days by dissociating into single cells by incubating in 1 mg/mL dispase (BD Biosciences) for 20 minutes and 0.25% trypsin-EDTA for 20 minutes. Spheres were grown for 7 days and imaged with a BZ-X710 Keyence microscope using the z-stack function. Images were stitched together into a single image and analyzed using ImageJ (NIH) to quantify sphere number and area. Experiments were repeated at least 3 independent times.
Sphere number per well quantified by Image J (NIH). 6 replicates per group.

A further assay concerns the target T1, ALDH5A1 (Homo sapiens, UniProt P51649).
T1 sequence (P51649 48-535): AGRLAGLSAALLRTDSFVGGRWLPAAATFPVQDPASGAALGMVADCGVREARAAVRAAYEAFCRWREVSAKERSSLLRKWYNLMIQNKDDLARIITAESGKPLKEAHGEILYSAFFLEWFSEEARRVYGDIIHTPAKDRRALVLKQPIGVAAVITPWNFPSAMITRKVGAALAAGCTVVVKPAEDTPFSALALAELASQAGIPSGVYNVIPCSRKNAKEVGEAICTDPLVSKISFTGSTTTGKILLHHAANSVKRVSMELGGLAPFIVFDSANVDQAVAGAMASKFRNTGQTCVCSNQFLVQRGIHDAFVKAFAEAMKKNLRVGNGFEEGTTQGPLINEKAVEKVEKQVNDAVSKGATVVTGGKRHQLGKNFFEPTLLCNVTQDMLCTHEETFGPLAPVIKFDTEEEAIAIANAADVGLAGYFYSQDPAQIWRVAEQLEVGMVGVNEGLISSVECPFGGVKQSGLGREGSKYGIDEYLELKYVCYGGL
Nature of the assay: ALDH enzymatic assay, recombinant ALDH5A1. In kind it is biochemical. The note with it: 5 μg/ml recombinant enzyme, 10 mM acetaldehyde, 20 μM Alda-341. The protocol: (§1) ALDH enzymatic assay: ALDH1A1, ALDH1A2, 2, 3A1, 3A2, 4A1, 5A1, 7A1 were measured as previously described using 5 μg/ml of recombinant protein (Chen, C. H., Cruz, L. A., and Mochly-Rosen, D. (2015) Pharmacological recruitment of aldehyde dehydrogenase 3A1 (ALDH3A1) to assist ALDH2 in acetaldehyde and ethanol metabolism in vivo. Proceedings of the National Academy of Sciences of the United States of America 112, 3074-3079). […] Assays were conducted in 50 mM NaPPi buffer (pH 7.4) in the presence of 2.5 mM NAD^+ and 10 mM substrate and measured in triplicate at 25° C. Dose response curve fits and EC50's were calculated using GraphPad Prism 7 software.

The target in a further assay is T2, ALDH4A1 (Homo sapiens, UniProt P30038).
T2 sequence (P30038 25-563): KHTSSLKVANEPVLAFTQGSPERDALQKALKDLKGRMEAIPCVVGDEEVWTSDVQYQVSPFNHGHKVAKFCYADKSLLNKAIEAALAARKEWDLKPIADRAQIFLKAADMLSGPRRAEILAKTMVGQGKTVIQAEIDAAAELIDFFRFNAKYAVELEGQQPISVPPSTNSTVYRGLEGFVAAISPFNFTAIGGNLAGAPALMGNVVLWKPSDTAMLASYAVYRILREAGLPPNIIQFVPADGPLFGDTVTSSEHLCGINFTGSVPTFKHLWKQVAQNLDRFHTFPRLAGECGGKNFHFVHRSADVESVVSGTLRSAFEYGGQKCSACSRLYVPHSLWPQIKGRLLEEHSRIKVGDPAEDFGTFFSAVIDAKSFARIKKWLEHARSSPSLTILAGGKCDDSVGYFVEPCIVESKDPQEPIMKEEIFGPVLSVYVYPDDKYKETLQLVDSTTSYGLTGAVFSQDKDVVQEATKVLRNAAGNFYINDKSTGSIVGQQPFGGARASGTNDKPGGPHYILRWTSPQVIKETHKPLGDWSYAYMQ
Nature of the assay: ALDH enzymatic assay, recombinant ALDH4A1. The note with it: 5 μg/ml recombinant enzyme, 10 mM acetaldehyde, 20 μM Alda-341. In kind it is biochemical. The protocol:
as §1

Another assay concerns the target ALDH3A2 (Homo sapiens, UniProt P51648). Nature of the assay: ALDH enzymatic assay, recombinant ALDH3A2. In kind it is biochemical. The note with it: 5 μg/ml recombinant enzyme, 10 mM acetaldehyde, 20 μM Alda-341. The protocol: as §1
Assay [2] has as its system mouse primary salivary sphere lysate. Nature of the assay: ALDH fluorescence-coupled enzymatic assay in salivary sphere lysate. In kind it is biochemical. To be noted: 10 mM acetaldehyde, 100 μM Alda-341. The protocol:
Assay conditions were modified from the original enzyme assay protocol above using 50 mM NaPPi buffer (pH 7.4), 2.5 mM NAD^+, 10 mM acetaldehyde or all-trans-retinal substrate with the addition of 1 U/mL diaphorase and 0.1 mM resazurin for the secondary reaction. Measurements were collected in triplicate at 25° C.
All measurements were collected in triplicate, and error bars represent SEM. *=p<0.05; ***=p<0.001 (Student's t-test).

Assay [3] concerns intact SMG from CD-1 E13.5 embryos. Nature of the assay: DarkZone dye aldehyde assay in intact E13.5 embryonic SMG. To be noted: 25 μM Alda-341 for 24 h, 4 Gy, 3 h after radiation. In kind it is cell-based, mouse. The protocol: DarkZone dye aldehyde assay in intact E13.5 embryonic SMG: E13.5 embryonic whole SMG were manually dissected and cultured in DMEM/F12 with 50 ug/mL transferrin and 50 ug/mL Vitamin C for 24 h. Glands were irradiated with 4 or 8 Gy and incubated with 20 uM DarkZone fluorescein aldehyde dye and 10 mM 2,4-Dimethoxyaniline catalyst (TCI America) for 1 h (Yuen, L. H., Saxena, N. S., Park, H. S., Weinberg, K., and Kool, E. T. (2016) Dark Hydrazone Fluorescence Labeling Agents Enable Imaging of Cellular Aldehydic Load. ACS chemical biology 11, 2312-2319). Glands were imaged 3 h after radiation using a Keyence BZ-X710 microscope GFP filter at 10× magnification. Average fluorescence intensity was quantified using Image J (NIH).
After 24 h, the glands were irradiated with 4 Gy and incubated SMG with DarkZone dye to measure intracellular aldehydes. After 3 h, the aldehydic load in the irradiated vehicle control-treated SMG was more than 4-fold greater than the non-irradiated vehicle control-treated SMG.

Each structure is given as a SMILES string.

Chain of ALDH3A2 (P51648 whole entry): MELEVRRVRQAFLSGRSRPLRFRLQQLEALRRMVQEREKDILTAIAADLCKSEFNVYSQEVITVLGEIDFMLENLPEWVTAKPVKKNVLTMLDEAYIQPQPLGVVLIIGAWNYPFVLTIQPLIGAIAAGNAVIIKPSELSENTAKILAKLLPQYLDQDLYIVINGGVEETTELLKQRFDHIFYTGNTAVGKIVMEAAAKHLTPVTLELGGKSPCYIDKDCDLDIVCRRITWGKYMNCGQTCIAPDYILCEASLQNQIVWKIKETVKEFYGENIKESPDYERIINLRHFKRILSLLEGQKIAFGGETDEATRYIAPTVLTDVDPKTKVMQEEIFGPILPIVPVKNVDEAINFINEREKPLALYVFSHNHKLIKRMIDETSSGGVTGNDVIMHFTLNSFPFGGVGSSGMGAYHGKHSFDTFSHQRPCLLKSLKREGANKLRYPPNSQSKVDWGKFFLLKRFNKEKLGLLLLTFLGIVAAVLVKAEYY

On to `C=C(C)[C@H]1CC=C(C)CC1` [Alda-341, D-limonene], for which the “increase in total salisphere number compared to vehicle control” value in assay [1] is listed as about 15%. Also, at ALDH5A1, the “catalytic activity of ALDH5A1” value was “did not increase”. The “catalytic activity of ALDH4A1” value at ALDH4A1 is “did not increase”. For the same molecule, on ALDH3A2, the “catalytic activity of ALDH3A2” value was “did not increase”. Moreover, the “enzymatic activity of the lysate from Aldh3a1(−/−) mice” value in assay [2] (400 μg/mL Aldh3a1(−/−) salivary sphere lysate) is “did not increase”. In assay [2] (400 μg/mL C57BL/6 WT salivary sphere lysate), the “increase of enzymatic activity of WT lysate” value was “approximately 30%”. The “aldehydic load after radiation” value in assay [3] was “reduced the aldehydic load to almost non-irradiated levels”.
